The values that follow come from patent US20250136606A1, “MODULATORS OF TRPML, THEIR COMPOSITIONS AND METHODS OF USE” (Caraway Therapeutics, Inc., priority 2021, published 2025).

Holding throughout (assay type): cell-based
One assay has as its target TRPML1 (Homo sapiens, UniProt Q9GZU1). Kind of assay: Fluorescent TRPML1 assay (Fluo4-AM calcium fluorescence in doxycycline-induced HEK-293 Trex cells). The essentials: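 HEK-293 Trex cells stably carrying human TRPML1 (surface-trafficking mutant) were induced overnight with 0.5 ug/mL doxycycline, loaded with 1 micromolar Fluo4-AM, and suspended in Ringer's with 10 mM calcium. Compounds at 20 micromolar to 6 nanomolar final, half-log steps, triplicate; fluorescence 480/540 nm gave percent activity versus controls and EC50 by non-linear regression.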

The next assay concerns the target T1, TRPML2 (Homo sapiens, UniProt Q8IZK6).
T1 construct: expressed in transfected cells
T1 sequence (Q8IZK6 1-566): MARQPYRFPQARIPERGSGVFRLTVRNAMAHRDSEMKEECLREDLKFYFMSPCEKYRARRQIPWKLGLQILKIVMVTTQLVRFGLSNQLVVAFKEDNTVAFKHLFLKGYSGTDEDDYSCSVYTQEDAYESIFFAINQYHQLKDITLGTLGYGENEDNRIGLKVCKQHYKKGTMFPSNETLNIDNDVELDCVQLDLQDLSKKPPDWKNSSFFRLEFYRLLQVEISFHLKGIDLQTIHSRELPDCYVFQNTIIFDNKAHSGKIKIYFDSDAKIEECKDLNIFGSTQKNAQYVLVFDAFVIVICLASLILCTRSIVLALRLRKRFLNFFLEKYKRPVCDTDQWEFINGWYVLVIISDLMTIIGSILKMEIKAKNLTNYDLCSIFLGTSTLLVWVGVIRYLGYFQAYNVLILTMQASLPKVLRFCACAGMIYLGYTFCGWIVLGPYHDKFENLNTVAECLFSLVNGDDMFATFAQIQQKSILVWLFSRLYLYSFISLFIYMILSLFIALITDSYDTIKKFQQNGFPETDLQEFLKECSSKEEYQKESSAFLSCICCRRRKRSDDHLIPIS
The experiment in a line: Fluorescent TRPML2 assay (performed as for TRPML1, substituting the TRPML2 subtype). The essentials:
(§1)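 Doxycycline-induced (0.5 ug/mL) HEK-293 Trex cells stably expressing surface-directed mutant channel were loaded with 1 micromolar Fluo4-AM, resuspended in Ringer's with 10 mM calcium and added to compound plates. Fluorescence (ex 480, em 540 nm) gave percent activity versus on-plate controls; EC50 by non-linear regression.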

The target of a further assay is T2, TRPML3 (Homo sapiens, UniProt Q8TDD5).
T2 construct: expressed in transfected cells
T2 sequence (Q8TDD5 1-553): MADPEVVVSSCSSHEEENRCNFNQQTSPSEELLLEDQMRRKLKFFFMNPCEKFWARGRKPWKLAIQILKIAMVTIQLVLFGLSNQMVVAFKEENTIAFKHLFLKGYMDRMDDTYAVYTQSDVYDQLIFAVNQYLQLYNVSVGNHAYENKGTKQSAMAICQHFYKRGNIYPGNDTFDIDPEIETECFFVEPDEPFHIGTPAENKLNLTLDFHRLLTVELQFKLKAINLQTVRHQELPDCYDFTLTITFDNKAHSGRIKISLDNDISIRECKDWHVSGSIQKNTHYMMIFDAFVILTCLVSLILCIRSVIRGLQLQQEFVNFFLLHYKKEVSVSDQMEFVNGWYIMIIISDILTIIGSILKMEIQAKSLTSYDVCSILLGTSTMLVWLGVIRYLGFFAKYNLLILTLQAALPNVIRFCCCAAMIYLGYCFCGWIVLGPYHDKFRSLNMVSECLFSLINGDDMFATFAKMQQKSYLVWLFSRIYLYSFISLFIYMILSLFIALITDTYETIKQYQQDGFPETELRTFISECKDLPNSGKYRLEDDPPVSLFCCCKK
Kind of assay: Fluorescent TRPML3 assay (performed as for TRPML1, substituting the TRPML3 subtype). The essentials: as §1

pEC50: −log10 of the molar value. Read-outs that look alike come from different tables or passages of the source. Some results are limits rather than exact numbers.

TRPML1, sequence (Q9GZU1 whole entry L15A/L16A/L577A/L578A, form open): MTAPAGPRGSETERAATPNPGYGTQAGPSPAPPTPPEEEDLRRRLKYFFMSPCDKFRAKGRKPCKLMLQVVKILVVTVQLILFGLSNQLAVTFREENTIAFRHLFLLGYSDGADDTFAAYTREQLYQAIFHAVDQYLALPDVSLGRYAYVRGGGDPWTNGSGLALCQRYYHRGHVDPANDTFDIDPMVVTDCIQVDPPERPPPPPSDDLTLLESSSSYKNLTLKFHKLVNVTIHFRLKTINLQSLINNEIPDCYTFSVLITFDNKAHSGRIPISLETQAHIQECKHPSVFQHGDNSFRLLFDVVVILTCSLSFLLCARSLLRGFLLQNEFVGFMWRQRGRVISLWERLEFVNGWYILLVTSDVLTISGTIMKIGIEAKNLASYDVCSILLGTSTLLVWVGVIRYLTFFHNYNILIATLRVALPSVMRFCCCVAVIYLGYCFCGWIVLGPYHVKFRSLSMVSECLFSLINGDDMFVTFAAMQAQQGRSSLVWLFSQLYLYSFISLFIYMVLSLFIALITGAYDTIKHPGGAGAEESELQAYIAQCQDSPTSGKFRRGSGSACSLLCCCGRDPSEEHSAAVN

In general, pEC50 refers to the negative decadic logarithm of the EC50, by convention in mol/L. As to `C[C@@H]1CN(c2ncnc3c2c(-c2cccnc2)cn3-c2cc(F)cc(Cl)c2)CCN1C(=O)OC(C)(C)C` [Compound 222, tert-butyl (R)-4-(7-(3-chloro-5-fluorophenyl)-5-(pyridin-3-yl)-7H-pyrrolo[2,3-d]pyrimidin-4-yl)-2-methylpiperazine-1-carboxylate], the pEC50 on TRPML1 (fluorescent calcium assay) was more than 7.00; on TRPML2 (fluorescent calcium assay), 5.70 to 6.30; at TRPML3 (fluorescent calcium assay), more than 7.00.

Consider `C[C@@H]1CN(C(=O)OC(C)(C)C)CCN1c1ncnc2c1c(C1CC1)cn2-c1cc(F)cc(F)c1` [Compound 211, tert-butyl (R)-4-(5-cyclopropyl-7-(3,5-difluorophenyl)-7H-pyrrolo[2,3-d]pyrimidin-4-yl)-3-methylpiperazine-1-carboxylate], for which the values for the pEC50 on TRPML1 (fluorescent calcium assay), on TRPML2 (fluorescent calcium assay) and at TRPML3 (fluorescent calcium assay) were 6.30 to 7.00, 5.70 to 6.30 and more than 7.00, respectively.

Take `C[C@H]1CN(C(=O)OC(C)(C)C)CCN1c1ncnc2c1c(N1CCCC1)cn2-c1ncc(C#N)s1` [Compound 485, tert-butyl (S)-4-(7-(5-cyanothiazol-2-yl)-5-(pyrrolidin-1-yl)-7H-pyrrolo[2,3-d]pyrimidin-4-yl)-3-methylpiperazine-1-carboxylate]: the pEC50 on TRPML1 (fluorescent calcium assay) is more than 7.00; at TRPML2 (fluorescent calcium assay) it was 5.70 to 6.30; on TRPML3 (fluorescent calcium assay), 5.70 to 6.30.

`C[C@H]1CN(C(=O)OC(C)(C)C)CCN1c1ncnc2c1c(C1CC1)cn2-c1cc(C#N)cnn1` [Compound 439, tert-butyl (S)-4-(7-(5-cyanopyridazin-3-yl)-5-cyclopropyl-7H-pyrrolo[2,3-d]pyrimidin-4-yl)-3-methylpiperazine-1-carboxylate]: the pEC50 at TRPML1 (fluorescent calcium assay) was 6.30 to 7.00; on TRPML2 (fluorescent calcium assay), 5.70 to 6.30; on TRPML3 (fluorescent calcium assay), more than 7.00.

Consider `CCN(CC)c1cn(-c2cc(C#N)ccn2)c2ncnc(N3CCN(C(=O)OC(C)(C)C)[C@H](C)C3)c12` [Compound 425, tert-butyl (R)-4-(7-(4-cyanopyridin-2-yl)-5-(diethylamino)-7H-pyrrolo[2,3-d]pyrimidin-4-yl)-2-methylpiperazine-1-carboxylate], for which the pEC50 at TRPML1 (fluorescent calcium assay) is more than 7.00; at TRPML2 (fluorescent calcium assay), 6.30 to 7.00; at TRPML3 (fluorescent calcium assay) it was more than 7.00.

For `[2H]C([2H])([2H])C(OC(=O)N1C[C@H](C)N(c2ncnc3c2c(C(F)(F)F)cn3-c2cc(C#N)ccn2)C[C@H]1C)(C([2H])([2H])[2H])C([2H])([2H])[2H]` [Compound 518, 2-(methyl-d3)propan-2-yl-1,1,1,3,3,3-d6 (2R,5S)-4-(7-(4-cyanopyridin-2-yl)-5-(trifluoromethyl)-7H-pyrrolo[2,3-d]pyrimidin-4-yl)-2,5-dimethylpiperazine-1-carboxylate], the pEC50 at TRPML1, at TRPML2 and on TRPML3 was more than 7.00 throughout.

Consider `CC(C)OC(=O)N1C[C@H](C)N(c2ncnc3c2c(-c2ccccc2F)cn3-c2cnn(C)c2)C[C@H]1C` [Compound 252, isopropyl (2R,5S)-4-(5-(2-fluorophenyl)-7-(1-methyl-1H-pyrazol-4-yl)-7H-pyrrolo[2,3-d]pyrimidin-4-yl)-2,5-dimethylpiperazine-1-carboxylate], for which the pEC50 on TRPML1 (fluorescent calcium assay) was 6.30 to 7.00; at TRPML2 (fluorescent calcium assay), less than 5.70; at TRPML3 (fluorescent calcium assay), 6.30 to 7.00.

On to `C[C@H]1CN(C(=O)OC2(C)CC2)CCN1c1ncnc2c1c(C(F)(F)F)cn2-c1cccc(Cl)c1` [Compound 660, 1-methylcyclopropyl (S)-4-(7-(3-chlorophenyl)-5-(trifluoromethyl)-7H-pyrrolo[2,3-d]pyrimidin-4-yl)-3-methylpiperazine-1-carboxylate], for which the pEC50 was 6.30 to 7.00 on TRPML1, 5.70 to 6.30 at TRPML2 and 6.30 to 7.00 on TRPML3.

Regarding `COc1cc(-n2cc(C3CC3)c3c(N4CCN(C(=O)OC(C)(C)C)C[C@@H]4C)ncnc32)cc(F)c1F` [Compound 301, tert-butyl (S)-4-(5-cyclopropyl-7-(3,4-difluoro-5-methoxyphenyl)-7H-pyrrolo[2,3-d]pyrimidin-4-yl)-3-methylpiperazine-1-carboxylate], the pEC50 at TRPML1 (fluorescent calcium assay) was 6.30 to 7.00; at TRPML2 (fluorescent calcium assay), 5.70 to 6.30; on TRPML3 (fluorescent calcium assay) it was 6.30 to 7.00.

On to `COc1cncc(-n2cc(C3CC3)c3c(N4CCN(C(=O)OC(C)(C)C)C[C@@H]4C)ncnc32)c1` [Compound 106, tert-butyl (S)-4-(5-cyclopropyl-7-(5-methoxypyridin-3-yl)-7H-pyrrolo[2,3-d]pyrimidin-4-yl)-3-methylpiperazine-1-carboxylate], for which the pEC50 at TRPML1 (fluorescent calcium assay) is 6.30 to 7.00; at TRPML2 (fluorescent calcium assay), 5.70 to 6.30; on TRPML3 (fluorescent calcium assay), 6.30 to 7.00.

On to `CC[C@H]1CN(c2ncnc3c2c(C2CC2)cn3-c2cc(F)cc(F)c2)CCN1C(=O)OC(C)(C)C` [Compound 257, tert-Butyl (S)-4-(5-cyclopropyl-7-(3,5-difluorophenyl)-7H-pyrrolo[2,3-d]pyrimidin-4-yl)-2-ethylpiperazine-1-carboxylate], for which the pEC50 on TRPML1 (fluorescent calcium assay) is 6.30 to 7.00; at TRPML2 (fluorescent calcium assay), 5.70 to 6.30; at TRPML3 (fluorescent calcium assay), 6.30 to 7.00.

Turning to `C[C@H]1CN(C(=O)OC(C)(C)C)CCN1c1ncnc2c1c(C1CC1)cn2-c1ccc(F)cc1` [Compound 128, tert-butyl (S)-4-(5-cyclopropyl-7-(4-fluorophenyl)-7H-pyrrolo[2,3-d]pyrimidin-4-yl)-3-methylpiperazine-1-carboxylate], the pEC50 at TRPML1 (fluorescent calcium assay) was more than 7.00; on TRPML2 (fluorescent calcium assay), 6.30 to 7.00; at TRPML3 (fluorescent calcium assay), more than 7.00.

On to `CC(C)(C)OC(=O)N1CCN(c2ncnc3c2c(C2CC2)cn3-c2cc(C#N)ccn2)C(C)(C)C1` [Compound 421, tert-butyl 4-(7-(4-cyanopyridin-2-yl)-5-cyclopropyl-7H-pyrrolo[2,3-d]pyrimidin-4-yl)-3,3-dimethylpiperazine-1-carboxylate], for which the pEC50 is 6.30 to 7.00 on TRPML1 (fluorescent calcium assay), more than 7.00 on TRPML2 (fluorescent calcium assay) and more than 7.00 at TRPML3 (fluorescent calcium assay).

In the case of `CC(C)(C)OC(=O)N1CCN(c2ncnc3c2c(-c2ccccc2F)cn3-c2cc(C#N)ccn2)C2CC21` (stereo not drawn) [Compound 412], the pEC50 is 6.30 to 7.00 on TRPML1 (fluorescent calcium assay), 6.30 to 7.00 at TRPML2 (fluorescent calcium assay) and more than 7.00 at TRPML3 (fluorescent calcium assay).

As for `C[C@@H]1CN(c2ncnc3c2c(C(F)F)cn3-c2cccc(Cl)c2)[C@@H](C)CN1C(=O)OC1(C)CC1` [Compound 608, 1-methylcyclopropyl (2R,5S)-4-(7-(3-chlorophenyl)-5-(difluoromethyl)-7H-pyrrolo[2,3-d]pyrimidin-4-yl)-2,5-dimethylpiperazine-1-carboxylate], the pEC50 on TRPML1 is 6.30 to 7.00; on TRPML2 it was less than 5.70; at TRPML3, more than 7.00.

With `CC(C)(C)OC(=O)N1CCN(c2ncnc3c2c(C(F)F)cn3-c2cc(C#N)ccn2)CC1` [Compound 609, tert-buty1 4-(7-(4-cyanopyridin-2-yl)-5-(difluoromethyl)-7H-pyrrolo[2,3-d]pyrimidin-4-yl)piperazine-1-carboxylate], the figures for the pEC50 on TRPML1, on TRPML2 and at TRPML3 were more than 7.00, 5.70 to 6.30 and more than 7.00, respectively.

For the molecule `C[C@@H]1CN(c2ncnc3c2c(N2CCC2)cn3-c2cc(C#N)ccn2)CCN1C(=O)OC(C)(C)C` [Compound 388, tert-butyl (R)-4-(5-(azetidin-1-yl)-7-(4-cyanopyridin-2-yl)-7H-pyrrolo[2,3-d]pyrimidin-4-yl)-2-methylpiperazine-1-carboxylate], the pEC50 at TRPML1 (fluorescent calcium assay), on TRPML2 (fluorescent calcium assay) and on TRPML3 (fluorescent calcium assay) was more than 7.00 in each case.

On to `C[C@@H]1CN(C(=O)OC(C)(C)C)CCN1c1ncnc2c1c(C1CCOCC1)cn2-c1cccc(F)c1` [Compound 469, tert-butyl (R)-4-(7-(3-fluorophenyl)-5-(tetrahydro-2H-pyran-4-yl)-7H-pyrrolo[2,3-d]pyrimidin-4-yl)-3-methylpiperazine-1-carboxylate], for which the pEC50 at TRPML1 (fluorescent calcium assay) is 6.30 to 7.00; on TRPML2 (fluorescent calcium assay), 5.70 to 6.30; on TRPML3 (fluorescent calcium assay), 6.30 to 7.00.
